Experimental findings from patent publication US20240279207A1, “SUBSTITUTED ACYL SULFONAMIDES FOR TREATING CANCER” (The Broad Institute, Inc., priority 2020, published 2024) are described below.

In assay [1] the target is T1, Recombinant human His-tagged Kat6a protein (amino acids 194-810) (Homo sapiens, UniProt Q92794).
T1 construct: Kat6a protein (amino acids 194-810); His
The assay is described as follows: Kat6a activity assay (TR-FRET, acetylation of Histone-H4-derived peptide). The class given is biochemical. The conditions noted are these: 60 mins at 22° C., 220 nM H4 peptide, 600 nM Acetyl Coenzyme A, read-out: KAT6A - DPF/HAT domain IC50 [mol/l] (arithmetic mean). For orientation: In TR-FRET formats the signal depends on donor and acceptor labels being close together.

Assay [2] concerns ESR1 transcription in MVLN cells. The assay is described as follows: MVLN reporter assay: repression of ESR1 transcription (luciferase signal). Type of assay: cell-based. The conditions noted are these: Homo sapiens, MVLN, 24 h, luciferase signal after 24 h, read-out: MVLN reporter assay, IC50 [M] (arithmetic mean). The gist of the method:
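MVLN cells, expressing ER and stably carrying a vitellogenin A2 ERE-luciferase reporter, treated with compound in duplicate; luciferase read after 24 h with Steadylite plus. Cell density checked in parallel by Alamar Blue fluorescence (530/590 nm, 2 h) before the luciferase read.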

Structures are written as SMILES.

T1 sequence (Q92794 194-810): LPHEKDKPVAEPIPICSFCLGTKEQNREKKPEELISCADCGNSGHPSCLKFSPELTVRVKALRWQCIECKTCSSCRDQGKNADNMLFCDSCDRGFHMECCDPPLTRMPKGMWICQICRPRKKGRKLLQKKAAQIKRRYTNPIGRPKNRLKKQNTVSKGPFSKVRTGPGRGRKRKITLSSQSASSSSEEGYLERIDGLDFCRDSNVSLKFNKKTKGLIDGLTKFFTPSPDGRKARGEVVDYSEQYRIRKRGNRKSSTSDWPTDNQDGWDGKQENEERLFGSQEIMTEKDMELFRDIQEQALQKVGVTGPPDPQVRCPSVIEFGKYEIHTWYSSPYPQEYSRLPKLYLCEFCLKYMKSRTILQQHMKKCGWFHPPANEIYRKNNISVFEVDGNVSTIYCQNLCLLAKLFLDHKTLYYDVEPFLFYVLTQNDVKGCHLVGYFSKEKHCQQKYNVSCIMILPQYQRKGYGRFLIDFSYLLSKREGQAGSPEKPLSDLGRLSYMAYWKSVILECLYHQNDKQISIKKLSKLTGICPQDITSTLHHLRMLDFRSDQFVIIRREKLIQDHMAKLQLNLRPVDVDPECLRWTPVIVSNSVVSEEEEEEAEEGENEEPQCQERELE

Consider `O=C(NS(=O)(=O)c1ccnc2ccccc12)c1cc2c(F)cc(N3CC(F)C3)cc2o1` [Example 111, 4-Fluoro-6-(3-fluoroazetidin-1-yl)-N-(quinoline-4-sulfonyl)-1-benzofuran-2-carboxamide], for which the IC50 in assay [1] is 3080 nM; in assay [2], more than 2e-05 M.

`CC(C)N(C)c1ccc(S(=O)(=O)NC(=O)c2cc3c(F)cc(N4CC(F)C4)cc3o2)c(F)c1F` [Example 166, N-{2,3-difluoro-4-[methyl(propan-2-yl)amino]benzene-1-sulfonyl}-4-fluoro-6-(3-fluoroazetidin-1-yl)-1-benzofuran-2-carboxamide]: the values for the IC50 in assay [1] and in assay [2] were 362 nM and 7.22e-06 M, respectively.

Regarding `O=C(NS(=O)(=O)c1ccccc1S(=O)(=O)c1ccccc1)c1cc2c(F)cc(N3CCC3)cc2o1` [Example 45, 6-(Azetidin-1-yl)-N-[2-(benzenesulfonyl)benzene-1-sulfonyl]-4-fluoro-1-benzofuran-2-carboxamide], the IC50 in assay [1] was determined as 111 nM; in assay [2], 1.1e-06 M.

Regarding `CCOc1ccccc1S(=O)(=O)NC(=O)c1cc2ccc(N3CC4(CCC4)C3)cc2o1` [Example 123, 6-(2-Azaspiro[3.3]heptan-2-yl)-N-(2-ethoxybenzene-1-sulfonyl)-1-benzofuran-2-carboxamide], the IC50 in assay [1] is more than 20000 nM; in assay [2], more than 2e-05 M.

In the case of `CC(=O)c1ccc(Cl)c(S(=O)(=O)NC(=O)c2cc3c(F)cc(N4CCC4)cc3o2)c1` [Example 99, N-(5-Acetyl-2-chlorobenzene-1-sulfonyl)-6-(azetidin-1-yl)-4-fluoro-1-benzofuran-2-carboxamide], the IC50 in assay [1] was 272 nM; in assay [2], 8.1e-07 M.

In the case of `O=C(NS(=O)(=O)c1cc(O)cc2ccccc12)c1cc2c(F)cc(N3CCC3)cc2o1` [Example 71, 6-(Azetidin-1-yl)-4-fluoro-N-(3-hydroxynaphthalene-1-sulfonyl)-1-benzofuran-2-carboxamide], the results for the IC50 in assay [1] and in assay [2] were 84.3 nM and 1.72e-05 M, respectively.

Turning to `Cc1nc(-c2ccc(S(=O)(=O)NC(=O)c3cc4c(F)cc(N5CC(F)C5)cc4o3)cc2)cs1` [Example 115, 4-Fluoro-6-(3-fluoroazetidin-1-yl)-N-[4-(2-methyl-1,3-thiazol-4-yl)benzene-1-sulfonyl]-1-benzofuran-2-carboxamide], the IC50 in assay [1] amounted to 563 nM; in assay [2], 3.81e-06 M.

For the molecule `CC(C)Oc1cccc(Cl)c1S(=O)(=O)NC(=O)c1cc2c(F)cc(N3CCC3)cc2o1` [Example 29, 6-(Azetidin-1-yl)-N-{2-chloro-6-[(propan-2-yl)oxy]benzene-1-sulfonyl}-4-fluoro-1-benzofuran-2-carboxamide], the IC50 worked out at 49.7 nM in assay [1] and 3.79e-07 M in assay [2].

As for `Cn1nc2cccc(S(=O)(=O)NC(=O)c3cc4c(F)cc(N5CCC5)cc4o3)c2n1` [Example 179, 6-(Azetidin-1-yl)-4-fluoro-N-(2-methyl-2H-benzotriazole-4-sulfonyl)-1-benzofuran-2-carboxamide], the values for the IC50 in assay [1] and in assay [2] were 66.6 nM and 5.53e-07 M, respectively.

`NS(=O)(=O)c1cc(COC(=O)c2cc3c(F)cc(N4CCC4)cc3o2)ccc1OC(F)(F)F` [Example 93, [3-sulfamoyl-4-(trifluoromethoxy)phenyl]methyl 6-(azetidin-1-yl)-4-fluoro-1-benzofuran-2-carboxylate]: the IC50 is 1160 nM in assay [1] and more than 2e-05 M in assay [2].

With `Cc1ccc(S(=O)(=O)NC(=O)c2cc3c(F)cc(N4CCC4)cc3o2)c(OC(F)F)c1` [Example 35, 6-(Azetidin-1-yl)-N-[2-(difluoromethoxy)-4-methylbenzene-1-sulfonyl]-4-fluoro-1-benzofuran-2-carboxamide], the IC50 in assay [1] came to 42.1 nM; in assay [2], 6.09e-07 M.

With `COc1ccc(-c2cnn(C)c2)cc1S(=O)(=O)NC(=O)c1cc2c(F)cc(N3CCC3)cc2o1` [Example 199, 6-(Azetidin-1-yl)-4-fluoro-N-[2-methoxy-5-(1-methyl-1H-pyrazol-4-yl)benzene-1-sulfonyl]-1-benzofuran-2-carboxamide], the IC50 in assay [1] amounted to 32.3 nM; in assay [2], 5.49e-07 M.

As for `O=C(NS(=O)(=O)c1ccc(O)c2ccccc12)c1cc2c(F)cc(N3CCC3)cc2o1` [Example 106, 6-(Azetidin-1-yl)-4-fluoro-N-(4-hydroxynaphthalene-1-sulfonyl)-1-benzofuran-2-carboxamide], the IC50 in assay [1] was more than 20000 nM; in assay [2], more than 2e-05 M.

With `Cc1cccc(C(C)C)c1S(=O)(=O)NC(=O)c1cc2c(F)cc(N3CCC3)cc2o1` [Example 53, 6-(Azetidin-1-yl)-4-fluoro-N-[2-methyl-6-(propan-2-yl)benzene-1-sulfonyl]-1-benzofuran-2-carboxamide], the results for the IC50 in assay [1] and in assay [2] were 698 nM and 1.58e-06 M, respectively.

For `Cc1ccnc2c1c(S(=O)(=O)NC(=O)c1cc3c(F)cc(N4CCC4)cc3o1)nn2C` [Example 146, 6-(Azetidin-1-yl)-N-(1,4-dimethyl-1H-pyrazolo[3,4-b]pyridine-3-sulfonyl)-4-fluoro-1-benzofuran-2-carboxamide], the IC50 is 290 nM in assay [1] and 2.83e-06 M in assay [2].

As for `CCOc1c(F)cccc1S(=O)(=O)NC(=O)c1cc2c(F)cc(N3CCC3)cc2o1` [Example 206, 6-(azetidin-1-yl)-N-(2-ethoxy-3-fluoro-phenyl)sulfonyl-4-fluoro-benzofuran-2-carboxamide], the IC50 in assay [1] came to 110 nM; in assay [2], 4.44e-07 M.

With `CCN(C)C(=O)c1ccccc1S(=O)(=O)NC(=O)c1cc2c(F)cc(N3CCC3)cc2o1` [Example 47, 6-(Azetidin-1-yl)-N-{2-[ethyl(methyl)carbamoyl]benzene-1-sulfonyl}-4-fluoro-1-benzofuran-2-carboxamide], the IC50 is 109 nM in assay [1] and 1.3e-06 M in assay [2].

As to `COC(=O)Nc1cccc2c(S(=O)(=O)NC(=O)c3cc4c(F)cc(N5CCC5)cc4o3)cccc12` [Example 192, Methyl (5-{[6-(azetidin-1-yl)-4-fluoro-1-benzofuran-2-carbonyl]sulfamoyl}naphthalen-1-yl)carbamate], the IC50 was 2000 nM in assay [1] and more than 2e-05 M in assay [2].

Turning to `O=C(NS(=O)(=O)c1ccccc1/C=C/C(F)(F)F)c1cc2c(F)cc(N3CCC3)cc2o1` [Example 55, 6-(Azetidin-1-yl)-4-fluoro-N-{2-[(1E)-3,3,3-trifluoroprop-1-en-1-yl]benzene-1-sulfonyl}-1-benzofuran-2-carboxamide], the figures for the IC50 in assay [1] and in assay [2] were 106 nM and 1.69e-06 M, respectively.

Turning to `O=C(NS(=O)(=O)c1cccc2cnccc12)c1cc2c(F)cc(N3CCC3)cc2o1` [Example 187, 6-(Azetidin-1-yl)-4-fluoro-N-(isoquinoline-5-sulfonyl)-1-benzofuran-2-carboxamide], the IC50 in assay [1] amounted to 1530 nM; in assay [2] it was 1.85e-05 M.

On to `CCc1cccc(OCc2ccccc2)c1S(=O)(=O)NC(=O)c1cc2c(F)cc(N3CCC3)cc2o1` [Example 85, 6-(Azetidin-1-yl)-N-[2-(benzyloxy)-6-ethylbenzene-1-sulfonyl]-4-fluoro-1-benzofuran-2-carboxamide], for which the IC50 in assay [1] came out at 45.7 nM; in assay [2], 3.1e-07 M.

With `CCCc1cccc(S(=O)(=O)NC(=O)c2cc3c(F)cc(N4CCC4)cc3o2)c1` [Example 40, 6-(Azetidin-1-yl)-4-fluoro-N-(3-propylbenzene-1-sulfonyl)-1-benzofuran-2-carboxamide], the IC50 was 64.2 nM in assay [1] and 7.89e-07 M in assay [2].
